Data published in patent US20230263822A1, “MODULATION OF FACTOR 11 EXPRESSION” (Ionis Pharmaceuticals, Inc., priority 2008, published 2023).

Experiment: Hematology assays in cynomolgus monkeys (Example 45)
Assay type: in vivo
Conditions: for MCH / MCHC / MCV / RBC count / WBC count / hematocrit / hemoglobin: escalating dose regimen
Description: Groups, each consisting of two male and three female monkeys, were injected subcutaneously with ISIS 416838, ISIS 416850, ISIS 416858, ISIS 416864, or ISIS 417002 in escalating doses. Antisense oligonucleotide was administered to the monkeys at 5 mg/kg three times per a week for week 1; 5 mg/kg twice per week for weeks 2 and 3; 10 mg/kg three times per week for week 4; 10 mg/kg twice per week for weeks 5 and 6; 25 mg/kg three times per week for week 7; and 25 mg/kg twice per week for weeks 8, 9, 10, 11, and 12. One control group, consisting of two male and three female monkeys, was injected subcutaneously with PBS according to the same dosing regimen. An additional experimental group, consisting of two male and three female monkeys, was injected subcutaneously with ISIS 416850 in a chronic, lower dose regimen. Antisense oligonucleotide was administered to the monkeys at 5 mg/kg three times per week for week 1; 5 mg/kg twice per week for week 2 and 3; 10 mg/kg three times per week for week 4; and 10 mg/kg twice per week for weeks 5 to 12. Body weights were measured weekly. Blood samples were collected 14 days and 5 days before the start of treatment and subsequently once per week for Factor 11 protein activity analysis in plasma, fibrinogen measurement, PT and aPTT measurements, bleeding times, and measurement of various hematologic factors. On day 85, the monkeys were euthanized by exsanguination while under deep anesthesia, and organs harvested for further analysis.
The ISIS oligonucleotide, ISIS 416850, given with the chronic dose regimen is distinguished from the other oligonucleotides with an asterisk (*).

ISIS 416864: MOE gapmer, nucleobases 1275 to 1318 of SEQ ID NO: 1 (Table 8) (antisense GGCAGCGGACGGCATTGGTG; MOE gapmer, wing and gap sizes not given here)
MCH (Day 64): 23 pg | MCH (Day 71): 23 pg | MCH (Day 78): 23 pg | MCH (Day 85): 23 pg | basophils (day 8): 0.2% | eosinophils (day 8): 0.7% | lymphocytes (day 8): 45% | monocytes (day 8): 2.1% | neutrophils (day 8): 52% | platelet count (day 8): 438000 µL⁻¹ | reticulocytes (day 8): 0.8% | MCH (day 8): 23 pg | MCHC (day 8): 29 g/dL | MCV (day 8): 78 fL | RBC count (day 8): 5.7e+06 µL⁻¹ | WBC count (day 8): 11000 µL⁻¹ | hematocrit (day 8): 44% | hemoglobin (day 8): 12.7 g/dL | basophils (day 15): 0.2% | eosinophils (day 15): 0.5% | lymphocytes (day 15): 38% | monocytes (day 15): 2.4% | neutrophils (day 15): 59% | platelet count (day 15): 439000 µL⁻¹ | reticulocytes (day 15): 0.8% | MCH (day 15): 23 pg | MCHC (day 15): 30 g/dL | MCV (day 15): 74 fL | RBC count (day 15): 5.7e+06 µL⁻¹ | WBC count (day 15): 10000 µL⁻¹ | hematocrit (day 15): 42% | hemoglobin (day 15): 12.8 g/dL | basophils (day 22): 0.2% | eosinophils (day 22): 0.9% | lymphocytes (day 22): 37% | monocytes (day 22): 2.8% | neutrophils (day 22): 59% | platelet count (day 22): 364000 µL⁻¹ | reticulocytes (day 22): 0.9% | MCH (day 22): 23 pg | MCHC (day 22): 29 g/dL | MCV (day 22): 79 fL | RBC count (day 22): 5.3e+06 µL⁻¹ | WBC count (day 22): 10000 µL⁻¹ | hematocrit (day 22): 42% | hemoglobin (day 22): 12.1 g/dL | basophils (day 29): 0.3% | eosinophils (day 29): 0.9% | lymphocytes (day 29): 51% | monocytes (day 29): 3.4% | neutrophils (day 29): 44% | platelet count (day 29): 397000 µL⁻¹ | reticulocytes (day 29): 1.3% | MCH (day 29): 23 pg | MCHC (day 29): 29 g/dL | MCV (day 29): 80 fL | RBC count (day 29): 5.3e+06 µL⁻¹ | WBC count (day 29): 10000 µL⁻¹ | hematocrit (day 29): 43% | hemoglobin (day 29): 12.1 g/dL | basophils (day 36): 0.3% | eosinophils (day 36): 0.6% | lymphocytes (day 36): 38% | monocytes (day 36): 2.3% | neutrophils (day 36): 58% | platelet count (day 36): 428000 µL⁻¹ | reticulocytes (day 36): 1.3% | MCH (day 36): 23 pg | MCHC (day 36): 30 g/dL | MCV (day 36): 76 fL | RBC count (day 36): 5.6e+06 µL⁻¹ | WBC count (day 36): 10000 µL⁻¹ | hematocrit (day 36): 42% | hemoglobin (day 36): 12.5 g/dL | basophils (day 43): 0.4% | eosinophils (day 43): 0.6% | lymphocytes (day 43): 39% | monocytes (day 43): 2.1% | neutrophils (day 43): 57% | platelet count (day 43): 351000 µL⁻¹ | reticulocytes (day 43): 1.1% | MCH (day 43): 22 pg | MCHC (day 43): 29 g/dL | MCV (day 43): 77 fL | RBC count (day 43): 5.5e+06 µL⁻¹ | WBC count (day 43): 10000 µL⁻¹ | hematocrit (day 43): 42% | hemoglobin (day 43): 12.2 g/dL | basophils (day 50): 0.4% | eosinophils (day 50): 0.7% | lymphocytes (day 50): 46% | monocytes (day 50): 2.9% | neutrophils (day 50): 49% | platelet count (day 50): 419000 µL⁻¹ | reticulocytes (day 50): 1.3% | MCH (day 50): 22 pg | MCHC (day 50): 28 g/dL | MCV (day 50): 79 fL | RBC count (day 50): 5.6e+06 µL⁻¹ | WBC count (day 50): 12000 µL⁻¹ | hematocrit (day 50): 44% | hemoglobin (day 50): 12.1 g/dL | basophils (day 57): 0.3% | eosinophils (day 57): 0.4% | lymphocytes (day 57): 39% | monocytes (day 57): 2.4% | neutrophils (day 57): 57% | platelet count (day 57): 409000 µL⁻¹ | reticulocytes (day 57): 1.0% | MCH (day 57): 23 pg | MCHC (day 57): 29 g/dL | MCV (day 57): 77 fL | RBC count (day 57): 5.5e+06 µL⁻¹ | WBC count (day 57): 12000 µL⁻¹ | hematocrit (day 57): 42% | hemoglobin (day 57): 12.3 g/dL | basophils (day 64): 0.4% | eosinophils (day 64): 0.7% | lymphocytes (day 64): 46% | monocytes (day 64): 2.8% | neutrophils (day 64): 49% | platelet count (day 64): 383000 µL⁻¹ | reticulocytes (day 64): 0.8% | MCHC (day 64): 29 g/dL | MCV (day 64): 75 fL | RBC count (day 64): 5.6e+06 µL⁻¹ | WBC count (day 64): 11000 µL⁻¹ | hematocrit (day 64): 42% | hemoglobin (day 64): 12.1 g/dL | basophils (day 71): 0.4% | eosinophils (day 71): 1.1% | lymphocytes (day 71): 52% | monocytes (day 71): 3.7% | neutrophils (day 71): 42% | platelet count (day 71): 394000 µL⁻¹ | reticulocytes (day 71): 1.0% | MCHC (day 71): 28 g/dL | MCV (day 71): 79 fL | RBC count (day 71): 5.6e+06 µL⁻¹ | WBC count (day 71): 14000 µL⁻¹ | hematocrit (day 71): 44% | hemoglobin (day 71): 12.2 g/dL | basophils (day 78): 0.3% | eosinophils (day 78): 1.2% | lymphocytes (day 78): 46% | monocytes (day 78): 3.7% | neutrophils (day 78): 48% | platelet count (day 78): 366000 µL⁻¹ | reticulocytes (day 78): 1.2% | MCHC (day 78): 30 g/dL | MCV (day 78): 74 fL | RBC count (day 78): 5.3e+06 µL⁻¹ | WBC count (day 78): 11000 µL⁻¹ | hematocrit (day 78): 39% | hemoglobin (day 78): 11.9 g/dL | basophils (day 85): 0.4% | eosinophils (day 85): 1.6% | lymphocytes (day 85): 54% | monocytes (day 85): 3.7% | neutrophils (day 85): 39% | platelet count (day 85): 387000 µL⁻¹ | reticulocytes (day 85): 1.5% | MCHC (day 85): 30 g/dL | MCV (day 85): 74 fL | RBC count (day 85): 5.4e+06 µL⁻¹ | WBC count (day 85): 12000 µL⁻¹ | hematocrit (day 85): 40% | hemoglobin (day 85): 12.3 g/dL | basophils (day −5): 0.2% | eosinophils (day −5): 0.9% | lymphocytes (day −5): 44% | monocytes (day −5): 3.3% | neutrophils (day −5): 51% | platelet count (day −5): 456000 µL⁻¹ | reticulocytes (day −5): 0.9% | MCH (day −5): 23 pg | MCHC (day −5): 29 g/dL | MCV (day −5): 79 fL | RBC count (day −5): 5.6e+06 µL⁻¹ | WBC count (day −5): 13000 µL⁻¹ | hematocrit (day −5): 44% | hemoglobin (day −5): 13.0 g/dL | basophils (day −14): 0.2% | eosinophils (day −14): 1.0% | lymphocytes (day −14): 42% | monocytes (day −14): 2.8% | neutrophils (day −14): 53% | platelet count (day −14): 434000 µL⁻¹ | reticulocytes (day −14): 0.9% | MCH (day −14): 23 pg | MCHC (day −14): 29 g/dL | MCV (day −14): 79 fL | RBC count (day −14): 5.5e+06 µL⁻¹ | WBC count (day −14): 13000 µL⁻¹ | hematocrit (day −14): 43% | hemoglobin (day −14): 12.7 g/dL
